Results: ChEMBL document CHEMBL4270556, “Current progress on antioxidants incorporating the pyrazole core” (Eur J Med Chem, 2018)

Test system: SH-SY5Y
Assay: Neuroprotection against rotenone/oligomycin A-induced cell death in human SH-SY5Y cells at 1 uM preincubated for 24 hrs followed by rotenone/oligomycin A addition measured after 24 hrs by MTT assay relative to control
Assay type: functional

For `Cc1[nH]nc2c1C(c1cccnc1)C(C#N)=C(N)O2` (stereo unspecified), the Activity was 57.9%.
